Laboratory results reported in ChEMBL document CHEMBL1201862, “PubChem BioAssay data set” (2004).
Activity calls are given as the source filed them.

Columns and labels:
Interleukin-8 [1] = target: T1, Interleukin-8 (Homo sapiens, UniProt P10145); assay: Dose Response confirmation of uHTS small molecule hits for cystic fibrosis induced NFkb Inhibitors in a TNFa-induced IL8 counterscreen.; assay type: functional; conditions: read-out: IC50_Mean
Interleukin-8 [2] = target: T1, Interleukin-8; assay: Dose Response confirmation of uHTS small molecule hits for cystic fibrosis induced NFkb Inhibitors in a PAF-induced IL8 counterscreen.; assay type: functional; conditions: read-out: IC50_Mean
Genome polyprotein = Genome polyprotein (dengue virus type 2, UniProt P29990); assay: flavivirus cap methylation enzyme inhibition – biochemical, confirmation dose response, primary screen (AID 588689); assay type: functional
Genome polyprotein, sequence (P29990 2492-3391 limits assumed): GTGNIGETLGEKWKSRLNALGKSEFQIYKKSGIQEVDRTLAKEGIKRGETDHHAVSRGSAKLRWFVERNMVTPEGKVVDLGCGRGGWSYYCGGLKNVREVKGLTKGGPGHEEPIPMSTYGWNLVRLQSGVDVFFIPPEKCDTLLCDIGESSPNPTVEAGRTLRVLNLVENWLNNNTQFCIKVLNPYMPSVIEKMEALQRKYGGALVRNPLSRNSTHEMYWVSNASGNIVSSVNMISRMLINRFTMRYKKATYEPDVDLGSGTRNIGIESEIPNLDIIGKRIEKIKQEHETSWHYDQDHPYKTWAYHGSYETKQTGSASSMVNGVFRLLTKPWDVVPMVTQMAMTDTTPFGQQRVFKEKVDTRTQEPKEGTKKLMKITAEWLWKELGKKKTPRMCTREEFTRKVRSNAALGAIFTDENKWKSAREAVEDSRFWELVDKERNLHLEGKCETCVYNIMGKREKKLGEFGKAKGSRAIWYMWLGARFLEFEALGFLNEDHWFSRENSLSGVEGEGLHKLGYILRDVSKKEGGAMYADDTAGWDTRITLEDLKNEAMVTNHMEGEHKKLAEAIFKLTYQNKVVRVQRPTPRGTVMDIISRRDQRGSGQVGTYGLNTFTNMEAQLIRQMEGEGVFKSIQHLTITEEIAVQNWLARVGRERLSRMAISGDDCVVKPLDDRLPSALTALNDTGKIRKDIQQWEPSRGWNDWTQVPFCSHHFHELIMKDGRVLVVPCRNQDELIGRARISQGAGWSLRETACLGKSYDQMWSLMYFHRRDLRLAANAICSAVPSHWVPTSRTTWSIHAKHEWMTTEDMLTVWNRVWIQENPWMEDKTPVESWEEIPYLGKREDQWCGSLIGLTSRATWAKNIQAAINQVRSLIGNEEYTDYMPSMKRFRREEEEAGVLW

[3] = target: Adenosylmethionine-8-amino-7-oxononanoate aminotransferase (Mycobacterium tuberculosis, UniProt P9WQ81); assay: Mycobacterium tuberculosis BioA enzyme inhibitor Measured in Biochemical System Using Plate Reader - 2163-02_Inhibitor_Dose_CherryPick_Activity.; assay type: functional, Mycobacterium tuberculosis UT205
Adenosylmethionine-8-amino-7-oxononanoate aminotransferase, sequence (P9WQ81 whole entry): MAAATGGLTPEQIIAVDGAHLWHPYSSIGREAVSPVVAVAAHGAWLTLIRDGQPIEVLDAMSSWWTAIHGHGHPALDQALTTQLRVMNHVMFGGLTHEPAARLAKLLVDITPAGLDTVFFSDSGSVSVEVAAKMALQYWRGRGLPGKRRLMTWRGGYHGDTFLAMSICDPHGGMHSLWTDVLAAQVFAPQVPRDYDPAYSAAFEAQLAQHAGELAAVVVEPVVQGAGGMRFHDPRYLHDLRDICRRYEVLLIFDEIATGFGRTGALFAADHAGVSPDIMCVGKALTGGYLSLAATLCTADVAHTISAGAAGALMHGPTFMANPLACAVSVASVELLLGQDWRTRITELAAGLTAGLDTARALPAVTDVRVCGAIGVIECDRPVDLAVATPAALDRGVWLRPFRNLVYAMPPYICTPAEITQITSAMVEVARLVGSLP

Caspase-3 [4] = target: T2, Caspase-3 (Homo sapiens, UniProt P42574); assay: inhibition of recombinant caspase-3 activity – biochemical, luminescence, set 2, selectivity assay for SENP protease inhibitor project, SAR follow-up (AID 588599); assay type: functional
T2 sequence (P42574 whole entry): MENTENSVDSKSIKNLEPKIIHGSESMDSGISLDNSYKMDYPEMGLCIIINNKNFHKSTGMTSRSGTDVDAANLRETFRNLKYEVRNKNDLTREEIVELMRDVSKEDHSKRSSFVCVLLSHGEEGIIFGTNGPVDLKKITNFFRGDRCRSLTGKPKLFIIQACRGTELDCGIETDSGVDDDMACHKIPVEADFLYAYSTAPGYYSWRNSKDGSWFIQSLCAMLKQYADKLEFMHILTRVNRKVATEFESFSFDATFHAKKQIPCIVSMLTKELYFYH

[5] = target: T3, Sentrin-specific protease 8 (Homo sapiens, UniProt Q96LD8); assay: inhibition of sentrin protease 8 – biochemical, luminescence, set 2, SAR follow-up (AID 588601); assay type: functional
T3 sequence (Q96LD8 whole entry): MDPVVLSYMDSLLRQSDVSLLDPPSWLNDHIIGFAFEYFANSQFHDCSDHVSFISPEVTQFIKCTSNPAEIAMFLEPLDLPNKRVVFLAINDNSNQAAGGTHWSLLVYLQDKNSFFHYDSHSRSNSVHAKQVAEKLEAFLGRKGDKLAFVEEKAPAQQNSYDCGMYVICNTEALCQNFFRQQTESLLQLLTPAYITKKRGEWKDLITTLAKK

[6] = target: T4, Sentrin-specific protease 7 (Homo sapiens, UniProt Q9BQF6); assay: inhibition of human SENP7 cleavage activity – biochemical, luminescence, set 2, SAR follow-up (AID 588600); assay type: functional
T4 sequence (Q9BQF6 whole entry): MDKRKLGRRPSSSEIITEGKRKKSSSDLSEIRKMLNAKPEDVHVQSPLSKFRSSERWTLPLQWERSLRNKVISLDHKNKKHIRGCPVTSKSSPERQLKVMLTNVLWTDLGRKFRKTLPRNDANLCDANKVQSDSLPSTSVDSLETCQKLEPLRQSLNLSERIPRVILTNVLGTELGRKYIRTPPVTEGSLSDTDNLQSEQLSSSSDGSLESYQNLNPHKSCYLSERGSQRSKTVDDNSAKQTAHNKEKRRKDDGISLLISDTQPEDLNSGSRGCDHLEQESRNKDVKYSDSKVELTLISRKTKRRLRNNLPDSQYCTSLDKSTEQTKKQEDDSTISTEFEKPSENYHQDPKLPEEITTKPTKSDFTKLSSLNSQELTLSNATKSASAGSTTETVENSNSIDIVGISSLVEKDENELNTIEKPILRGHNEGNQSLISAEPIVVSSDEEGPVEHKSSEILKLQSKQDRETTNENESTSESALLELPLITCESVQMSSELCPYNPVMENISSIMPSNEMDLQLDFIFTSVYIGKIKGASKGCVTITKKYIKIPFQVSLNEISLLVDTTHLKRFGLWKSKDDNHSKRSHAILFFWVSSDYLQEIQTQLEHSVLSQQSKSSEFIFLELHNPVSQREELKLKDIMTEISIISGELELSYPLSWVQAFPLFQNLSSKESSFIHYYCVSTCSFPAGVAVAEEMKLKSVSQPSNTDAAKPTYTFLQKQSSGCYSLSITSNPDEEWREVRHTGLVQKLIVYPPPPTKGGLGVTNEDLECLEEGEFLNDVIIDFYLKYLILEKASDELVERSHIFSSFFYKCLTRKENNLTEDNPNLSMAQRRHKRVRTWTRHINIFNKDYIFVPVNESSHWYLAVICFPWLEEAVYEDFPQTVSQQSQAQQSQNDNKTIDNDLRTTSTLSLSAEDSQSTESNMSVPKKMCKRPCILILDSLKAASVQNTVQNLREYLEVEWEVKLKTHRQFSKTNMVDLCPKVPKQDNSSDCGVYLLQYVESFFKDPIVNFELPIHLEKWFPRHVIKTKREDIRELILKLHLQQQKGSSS

[7] = target: T5, Sentrin-specific protease 6 (Homo sapiens, UniProt Q9GZR1); assay: inhibition of human SENP6 catalytic domain – biochemical, luminescence, set 2, SAR follow-up (AID 588598); assay type: functional
T5 sequence (Q9GZR1 whole entry): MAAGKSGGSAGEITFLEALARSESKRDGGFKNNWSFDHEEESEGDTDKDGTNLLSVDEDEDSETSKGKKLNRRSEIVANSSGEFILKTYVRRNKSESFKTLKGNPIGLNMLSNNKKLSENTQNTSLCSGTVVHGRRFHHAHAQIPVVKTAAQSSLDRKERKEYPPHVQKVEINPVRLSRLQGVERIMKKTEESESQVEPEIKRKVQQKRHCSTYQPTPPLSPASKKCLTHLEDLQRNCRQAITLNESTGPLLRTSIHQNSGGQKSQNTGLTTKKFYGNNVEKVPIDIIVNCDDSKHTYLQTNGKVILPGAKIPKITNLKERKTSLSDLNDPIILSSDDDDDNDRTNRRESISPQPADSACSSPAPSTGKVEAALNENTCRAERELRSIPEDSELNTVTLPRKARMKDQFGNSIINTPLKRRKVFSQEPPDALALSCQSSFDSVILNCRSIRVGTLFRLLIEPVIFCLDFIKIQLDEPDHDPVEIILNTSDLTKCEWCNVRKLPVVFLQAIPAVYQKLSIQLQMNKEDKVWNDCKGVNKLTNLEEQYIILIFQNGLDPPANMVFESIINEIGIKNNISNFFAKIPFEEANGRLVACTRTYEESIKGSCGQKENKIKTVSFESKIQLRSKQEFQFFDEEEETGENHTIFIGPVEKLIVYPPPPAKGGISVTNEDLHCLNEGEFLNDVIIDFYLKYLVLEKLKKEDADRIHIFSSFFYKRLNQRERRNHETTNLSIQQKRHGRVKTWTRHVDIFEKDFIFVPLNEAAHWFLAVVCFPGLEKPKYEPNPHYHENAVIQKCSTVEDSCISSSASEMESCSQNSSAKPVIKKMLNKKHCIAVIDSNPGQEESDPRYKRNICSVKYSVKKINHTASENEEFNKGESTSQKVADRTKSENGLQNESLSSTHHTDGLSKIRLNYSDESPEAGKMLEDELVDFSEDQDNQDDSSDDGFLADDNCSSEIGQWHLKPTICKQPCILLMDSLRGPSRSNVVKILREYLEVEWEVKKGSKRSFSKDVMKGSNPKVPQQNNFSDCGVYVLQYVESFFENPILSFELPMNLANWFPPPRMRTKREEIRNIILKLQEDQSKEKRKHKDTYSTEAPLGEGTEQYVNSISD

[8] = target: T3, Sentrin-specific protease 8; assay: inhibition of human SENP8 cleavage activity – biochemical, luminescence, SAR follow-up (AID 504501); assay type: functional
Caspase-3 [9] = target: T2, Caspase-3; assay: SAR Analysis of small molecule inhibitors of Sentrin-specific proteases (SENPs) using a Caspase-3 Selectivity assay. [Related pubchem assays (depositor defined):AID2540, AID2599, AID434973, AID489001]; assay type: functional
[10] = target: T5, Sentrin-specific protease 6; assay: SAR Analysis of small molecule inhibitors of Sentrin-specific protease 6 (SENP6) using a Luminescent assay. [Related pubchem assays (depositor defined):AID2582, AID2599]; assay type: functional
[11] = target: T4, Sentrin-specific protease 7; assay: inhibition of human SENP7 cleavage activity – biochemical, luminescence, SAR follow-up (AID 504497); assay type: functional
[12] = target: DNA dC->dU-editing enzyme APOBEC-3G (Homo sapiens, UniProt Q9HC16); assay: inhibition of APOBEC3G ssDNA deamination – biochemical, fluorescence, single-stranded DNA substrate, SAR follow-up (AID 602136); assay type: functional; conditions: read-out: IC50_Mean
DNA dC->dU-editing enzyme APOBEC-3G, sequence (Q9HC16 whole entry): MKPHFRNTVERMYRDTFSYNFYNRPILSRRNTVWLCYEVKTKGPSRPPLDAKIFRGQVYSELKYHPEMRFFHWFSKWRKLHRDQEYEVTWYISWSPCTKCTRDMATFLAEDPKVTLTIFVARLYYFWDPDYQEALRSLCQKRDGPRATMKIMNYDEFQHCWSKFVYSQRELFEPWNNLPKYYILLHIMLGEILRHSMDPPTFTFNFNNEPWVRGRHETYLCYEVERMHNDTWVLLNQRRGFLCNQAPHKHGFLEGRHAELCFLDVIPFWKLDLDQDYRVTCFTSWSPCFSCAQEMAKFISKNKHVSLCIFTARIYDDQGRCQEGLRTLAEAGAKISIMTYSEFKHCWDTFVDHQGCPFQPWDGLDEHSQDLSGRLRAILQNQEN

[13] = target: DNA dC->dU-editing enzyme APOBEC-3A (Homo sapiens, UniProt P31941); assay: SAR analysis of small molecule inhibitors of APOBEC3A DNA Deaminase via a fluorescence-based single-stranded DNA deaminase assay.; assay type: functional; conditions: read-out: IC50_Mean
DNA dC->dU-editing enzyme APOBEC-3A, sequence (P31941 whole entry, the tested form may be a part): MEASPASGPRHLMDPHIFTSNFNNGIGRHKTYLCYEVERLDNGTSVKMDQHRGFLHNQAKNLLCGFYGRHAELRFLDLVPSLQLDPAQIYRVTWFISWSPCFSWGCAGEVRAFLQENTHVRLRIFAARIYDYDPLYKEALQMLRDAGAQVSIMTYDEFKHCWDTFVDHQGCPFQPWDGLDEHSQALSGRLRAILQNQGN

[14] = inhibition of ARNT PAS-B/TACC3 complex formation – biochemical, AlphaScreen, cherry-picked samples, confirmation (AID 651703); assay type: functional, Homo sapiens;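 also: His-tagged ARNT PAS-B domain paired with GST-TACC3 E629A dimer coactivator fragment; potency of inhibitors that break up the complex and lower AlphaScreen signal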
[15] = target: Aryl hydrocarbon receptor (Homo sapiens, UniProt P35869); conditions: Potency;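 also: confirmatory quantitative high-throughput screen measuring activation of the AhR signaling pathway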
Aryl hydrocarbon receptor, sequence (P35869 whole entry): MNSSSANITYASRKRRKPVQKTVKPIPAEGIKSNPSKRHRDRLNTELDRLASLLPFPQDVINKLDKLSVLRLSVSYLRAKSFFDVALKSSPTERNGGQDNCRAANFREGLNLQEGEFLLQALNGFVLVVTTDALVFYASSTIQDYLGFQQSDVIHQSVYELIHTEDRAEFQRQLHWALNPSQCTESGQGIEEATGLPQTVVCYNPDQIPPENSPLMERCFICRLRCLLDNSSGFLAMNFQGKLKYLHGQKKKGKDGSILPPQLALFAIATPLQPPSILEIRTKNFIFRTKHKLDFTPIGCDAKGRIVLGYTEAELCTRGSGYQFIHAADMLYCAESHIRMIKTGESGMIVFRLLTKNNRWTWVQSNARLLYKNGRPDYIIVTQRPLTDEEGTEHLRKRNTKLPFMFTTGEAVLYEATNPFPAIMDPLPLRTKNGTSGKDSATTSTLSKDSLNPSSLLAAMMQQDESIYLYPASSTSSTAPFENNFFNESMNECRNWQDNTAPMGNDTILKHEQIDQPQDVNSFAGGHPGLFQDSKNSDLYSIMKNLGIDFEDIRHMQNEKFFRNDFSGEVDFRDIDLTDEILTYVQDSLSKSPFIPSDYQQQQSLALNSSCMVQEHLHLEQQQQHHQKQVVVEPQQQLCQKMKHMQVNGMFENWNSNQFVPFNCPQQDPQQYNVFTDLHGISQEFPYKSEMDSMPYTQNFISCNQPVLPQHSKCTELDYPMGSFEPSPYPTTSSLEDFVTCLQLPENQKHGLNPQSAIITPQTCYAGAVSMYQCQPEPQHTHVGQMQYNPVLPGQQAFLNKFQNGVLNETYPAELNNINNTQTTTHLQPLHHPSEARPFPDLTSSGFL

T1 sequence (P10145 whole entry): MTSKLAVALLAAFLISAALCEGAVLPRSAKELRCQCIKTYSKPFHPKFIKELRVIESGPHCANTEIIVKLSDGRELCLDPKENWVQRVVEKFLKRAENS

## C=CCn1c(Oc2ccccc2F)nc2c1c(=O)n(C)c(=O)n2C
Interleukin-8 [1]
  IC50: > 79 µM (inactive)
Interleukin-8 [2]
  IC50: 51.1 µM (inactive)

## O=C(O)CN1C(=O)/C(=C\c2cc(Br)ccc2OCc2ccc([N+](=O)[O-])cc2)SC1=S
Genome polyprotein
  IC50: 30.3 µM (active)
[3]
  AC50: 11.7 µM (active)

## COc1cccc(-n2nnc3c(N4CCN(C(=O)C(=O)c5c(C)[nH]c6ccccc56)CC4)ncnc32)c1
Caspase-3 [4]
  IC50: > 99 µM (inactive)
[5]
  IC50: > 99 µM (inactive)
[6]
  IC50: > 99 µM (inactive)
[7]
  IC50: > 99 µM (inactive)

## CCCCc1ccc2nc(NC(=O)c3ccc(Br)o3)sc2c1
[8]
  IC50: > 99 µM (inactive)
Caspase-3 [4]
  IC50: 5.94 µM (active)
[5]
  IC50: 5.7 µM (active)
Caspase-3 [9]
  IC50: 11 µM (active)
[6]
  IC50: 8.4 µM (active)
[10]
  IC50: > 99 µM (inactive)
[7]
  IC50: 6.66 µM (active)
[11]
  IC50: 3.8 µM (active)

## COc1ccc(-c2nnc(SCc3nc4ccsc4c(=O)[nH]3)[nH]2)cc1
[12]
  IC50: 66.4 µM (inactive)
[13]
  IC50: > 99 µM (inactive)

## C/C(=N\NC(=O)c1ccncc1)C12CC3CC(CC(C3)C1)C2
[14]
  AC50: 88.3 µM (active)

## CC(C)OC(=O)Nc1cccc(Cl)c1 [CHLORPROPHAM]
[15]
  AC50: 63.1 µM (inconclusive)
